Measured values published in US20260015358A1, “BICYCLIC DERIVATIVES, COMPOSITIONS AND USES THEREOF” (Danatlas Pharmaceuticals Co., Ltd., priority 2023, published 2026).
pIC50: −log10 of the molar value.

Key:
[1] = molecular target: T1, WRN [UniPro: Q14191 (WRN_HUMAN), N500-C946] (Homo sapiens (Human), UniProt Q14191); experiment: WRN ATPase assay (ADP-Glo); type: biochemical; details: WRN enzymatic activity assay
[2] = molecular target: T1, WRN [UniPro: Q14191 (WRN_HUMAN), N500-C946]; experiment: WRN unwinding assay (FORKF DNA, fluorescence); type: biochemical; details: Table 14

T1 sequence (Q14191 500-946): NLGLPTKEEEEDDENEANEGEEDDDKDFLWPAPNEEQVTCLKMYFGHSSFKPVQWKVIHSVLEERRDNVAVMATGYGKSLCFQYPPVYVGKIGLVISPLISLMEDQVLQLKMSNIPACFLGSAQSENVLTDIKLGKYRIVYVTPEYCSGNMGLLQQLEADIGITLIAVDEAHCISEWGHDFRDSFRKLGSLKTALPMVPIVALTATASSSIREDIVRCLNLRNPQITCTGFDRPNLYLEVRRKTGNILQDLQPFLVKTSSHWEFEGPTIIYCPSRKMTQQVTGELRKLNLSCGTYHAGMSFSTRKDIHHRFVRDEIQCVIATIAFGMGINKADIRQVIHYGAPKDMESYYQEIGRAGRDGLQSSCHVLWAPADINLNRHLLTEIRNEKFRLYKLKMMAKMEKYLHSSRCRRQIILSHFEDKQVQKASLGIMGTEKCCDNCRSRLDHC

## CCc1c(N2CCN(C(=O)CNC(=O)c3cc(N)ccc3F)CC2)c(=O)n2nc(C3=CCOCC3)nc2n1CC(=O)Nc1ccc(C(F)(F)F)cc1Cl [Example 372, 5-Amino-N-(2-(4-(4-(2-((2-chloro-4-(trifluoromethyl)phenyl)amino)-2-oxoethyl)-2-(3,6-dihydro-2H-pyran-4-yl)-5-ethyl-7-oxo-4,7-dihydro-[1,2,4]triazolo[1,5-a]pyrimidin-6-yl)piperazin-1-yl)-2-oxoethyl)-2-fluorobenzamide]
[1]
  pIC50: > 7.00
[2]
  pIC50: > 7.00

## CCc1c(N2CCN(C(=O)c3cnc4sc(Br)cc4c3O)CC2)c(=O)n2nc(C3=CCOCC3)nc2n1CC(=O)Nc1ccc(C(F)(F)F)cc1F [Example 297, 2-(6-(4-(2-Bromo-4-hydroxythieno[2,3-b]pyridine-5-carbonyl)piperazin-1-yl)-2-(3,6-dihydro-2H-pyran-4-yl)-5-ethyl-7-oxo-[1,2,4]triazolo[1,5-a]pyrimidin-4(7H)-yl)-N-(2-fluoro-4-(trifluoromethyl)phenyl)acetamide]
[1]
  pIC50: > 7.00
[2]
  pIC50: > 7.00

## CCc1c(N2CCN(C(=O)CNC(=O)NC(=O)c3cc(F)ccc3F)CC2)c(=O)n2nc(C3=CCOCC3)nc2n1CC(=O)Nc1ccc(C(F)(F)F)cc1Cl [Example 265, N-((2-(4-(4-(2-((2-Chloro-4-(trifluoromethyl)phenyl)amino)-2-oxoethyl)-2-(3,6-dihydro-2H-pyran-4-yl)-5-ethyl-7-oxo-4,7-dihydro-[1,2,4]triazolo[1,5-a]pyrimidin-6-yl)piperazin-1-yl)-2-oxoethyl)carbamoyl)-2,5-difluorobenzamide]
[1]
  pIC50: > 7.00
[2]
  pIC50: > 7.00

## CCc1c(N2CCN(C(=O)c3cc4ccn(C)c4cc3O)CC2)c(=O)n2nc(C3=CCOCC3)nc2n1CC(=O)Nc1ccc(C(F)(F)F)cc1Cl [Example 80, N-(2-Chloro-4-(trifluoromethyl)phenyl)-2-(2-(3,6-dihydro-2H-pyran-4-yl)-5-ethyl-6-(4-(6-hydroxy-1-methyl-1H-indole-5-carbonyl)piperazin-1-yl)-7-oxo-[1,2,4]triazolo[1,5-a]pyrimidin-4(7H)-yl)acetamide]
[1]
  pIC50: 6.00 to 7.00
[2]
  pIC50: > 7.00

## CCc1c(N2CCN(C(=O)c3ccnc4cc[nH]c34)CC2)c(=O)n2nc(C3=CCOCC3)nc2n1CC(=O)Nc1ccc(Cl)cc1C(F)(F)F [Example 68, 2-(6-(4-(1H-Pyrrolo[3,2-b]pyridine-7-carbonyl)piperazin-1-yl)-2-(3,6-dihydro-2H-pyran-4-yl)-5-ethyl-7-oxo-[1,2,4]triazolo[1,5-a]pyrimidin-4(7H)-yl)-N-(4-chloro-2-(trifluoromethyl)phenyl)acetamide]
[1]
  pIC50: 6.00 to 7.00
[2]
  pIC50: 6.00 to 7.00

## CCc1c(N2CCN(C(=O)CNC(=O)c3cc(Cl)ccc3Cl)CC2)c(=O)n2nc(C3=CCOCC3)nc2n1CC(=O)Nc1ccc(C(F)(F)F)cc1Cl [Example 126, 2,5-Dichloro-N-(2-(4-(4-(2-((2-chloro-4-(trifluoromethyl)phenyl)amino)-2-oxoethyl)-2-(3,6-dihydro-2H-pyran-4-yl)-5-ethyl-7-oxo-4,7-dihydro-[1,2,4]triazolo[1,5-a]pyrimidin-6-yl)piperazin-1-yl)-2-oxoethyl)benzamide]
[1]
  pIC50: > 7.00
[2]
  pIC50: > 7.00

## CCc1c(N2CCN(C(=O)CNC(=O)Nc3nccs3)CC2)c(=O)n2nc(C3=CCOCC3)nc2n1CC(=O)Nc1ccc(C(F)(F)F)cc1Cl [Example 188, N-(2-Chloro-4-(trifluoromethyl)phenyl)-2-(2-(3,6-dihydro-2H-pyran-4-yl)-5-ethyl-7-oxo-6-(4-((thiazol-2-ylcarbamoyl)glycyl)piperazin-1-yl)-[1,2,4]triazolo[1,5-a]pyrimidin-4(7H)-yl)acetamide]
[1]
  pIC50: > 7.00
[2]
  pIC50: > 7.00

## CCc1c(N2CCN(C(=O)CNC(=O)c3cccc(F)c3F)CC2)c(=O)n2nc(C3=CCOCC3)nc2n1CC(=O)Nc1ccc(C(F)(F)F)cc1Cl [Example 116, N-(2-(4-(4-(2-((2-Chloro-4-(trifluoromethyl)phenyl)amino)-2-oxoethyl)-2-(3,6-dihydro-2H-pyran-4-yl)-5-ethyl-7-oxo-4,7-dihydro-[1,2,4]triazolo[1,5-a]pyrimidin-6-yl)piperazin-1-yl)-2-oxoethyl)-2,3-difluorobenzamide]
[1]
  pIC50: > 7.00
[2]
  pIC50: > 7.00

## CCc1c(N2CCN(C(=O)CNC(=O)c3ccccc3)CC2)c(=O)n2nc(N3Cc4ccncc4C3)nc2n1CC(=O)Nc1ccc(C(F)(F)F)cc1Cl [Example 232, N-(2-(4-(4-(2-((2-Chloro-4-(trifluoromethyl)phenyl)amino)-2-oxoethyl)-2-(1,3-dihydro-2H-pyrrolo[3,4-c]pyridin-2-yl)-5-ethyl-7-oxo-4,7-dihydro-[1,2,4]triazolo[1,5-a]pyrimidin-6-yl)piperazin-1-yl)-2-oxoethyl)benzamide]
[1]
  pIC50: > 7.00
[2]
  pIC50: > 7.00

## CCc1c(N2CCN(C(=O)CNC(=O)c3ccccc3F)CC2)c(=O)n2nc(C3=CCOCC3)nc2n1CC(=O)Nc1cc(C)cs1 [Example 154, N-(2-(4-(2-(3,6-Dihydro-2H-pyran-4-yl)-5-ethyl-4-(2-((4-methylthiophen-2-yl)amino)-2-oxoethyl)-7-oxo-4,7-dihydro-[1,2,4]triazolo[1,5-a]pyrimidin-6-yl)piperazin-1-yl)-2-oxoethyl)-2-fluorobenzamide]
[1]
  pIC50: > 7.00
[2]
  pIC50: > 7.00

## CCc1c(N2CCN(C(=O)c3n[nH]c(=O)n(C)c3=O)CC2)c(=O)n2nc(C3=CCOCC3)nc2n1CC(=O)Nc1ccc(Cl)cc1C(F)(F)F [Example 73, N-(4-Chloro-2-(trifluoromethyl)phenyl)-2-(2-(3,6-dihydro-2H-pyran-4-yl)-5-ethyl-6-(4-(4-methyl-3,5-dioxo-2,3,4,5-tetrahydro-1,2,4-triazine-6-carbonyl)piperazin-1-yl)-7-oxo-[1,2,4]triazolo[1,5-a]pyrimidin-4(7H)-yl)acetamide]
[1]
  pIC50: > 7.00
[2]
  pIC50: > 7.00

## CCc1c(N2CCN(C(=O)C(=O)NC3CCCC3)CC2)c(=O)n2nc(C3=CCOCC3)nc2n1CC(=O)Nc1ccc(C(F)(F)F)cc1Cl [Example 357, 2-(4-(4-(2-((2-Chloro-4-(trifluoromethyl)phenyl)amino)-2-oxoethyl)-2-(3,6-dihydro-2H-pyran-4-yl)-5-ethyl-7-oxo-4,7-dihydro-[1,2,4]triazolo[1,5-a]pyrimidin-6-yl)piperazin-1-yl)-N-cyclopentyl-2-oxoacetamide]
[1]
  pIC50: 6.00 to 7.00
[2]
  pIC50: 6.00 to 7.00

## CCc1c(N2CCN(C(=O)CNC(=O)c3ccns3)CC2)c(=O)n2nc(C3=CCOCC3)nc2n1CC(=O)Nc1ccc(C(F)(F)F)cc1Cl [Example 369, N-(2-(4-(4-(2-((2-Chloro-4-(trifluoromethyl)phenyl)amino)-2-oxoethyl)-2-(3,6-dihydro-2H-pyran-4-yl)-5-ethyl-7-oxo-4,7-dihydro-[1,2,4]triazolo[1,5-a]pyrimidin-6-yl)piperazin-1-yl)-2-oxoethyl) isothiazole-5-carboxamide]
[1]
  pIC50: > 7.00
[2]
  pIC50: > 7.00

## CCc1c(N2CCN(C(=O)CNC(=O)c3ccccc3)CC2)c(=O)n2nc(C3=CCOCC3)nc2n1CC(=O)Nc1ccc(C(F)(F)F)cc1Cl [Example 93, N-(2-(4-(4-(2-((2-Chloro-4-(trifluoromethyl)phenyl)amino)-2-oxoethyl)-2-(3,6-dihydro-2H-pyran-4-yl)-5-ethyl-7-oxo-4,7-dihydro-[1,2,4]triazolo[1,5-a]pyrimidin-6-yl)piperazin-1-yl)-2-oxoethyl)benzamide]
[1]
  pIC50: > 7.00
[2]
  pIC50: > 7.00

## CCc1c(N2CCN(C(=O)CNC(=O)NCc3ccccc3)CC2)c(=O)n2nc(C3=CCOCC3)nc2n1CC(=O)Nc1ccc(C(F)(F)F)cc1Cl [Example 183, 2-(6-(4-((Benzylcarbamoyl)glycyl)piperazin-1-yl)-2-(3,6-dihydro-2H-pyran-4-yl)-5-ethyl-7-oxo-[1,2,4]triazolo[1,5-a]pyrimidin-4(7H)-yl)-N-(2-chloro-4-(trifluoromethyl)phenyl)acetamide]
[1]
  pIC50: > 7.00
[2]
  pIC50: > 7.00

## CCc1c(N2CCN(C(=O)CNC(=O)c3cc(OC)ccc3F)CC2)c(=O)n2nc(C3=CCOCC3)nc2n1CC(=O)Nc1ccc(C(F)(F)F)cc1Cl [Example 378, N-(2-(4-(4-(2-((2-Chloro-4-(trifluoromethyl)phenyl)amino)-2-oxoethyl)-2-(3,6-dihydro-2H-pyran-4-yl)-5-ethyl-7-oxo-4,7-dihydro-[1,2,4]triazolo[1,5-a]pyrimidin-6-yl)piperazin-1-yl)-2-oxoethyl)-2-fluoro-5-methoxybenzamide]
[1]
  pIC50: > 7.00
[2]
  pIC50: > 7.00

## CCc1c(N2CCN(C(=O)CNC(=O)c3cc(C)ns3)CC2)c(=O)n2nc(C3=CCOCC3)nc2n1CC(=O)Nc1ccc(C(F)(F)F)cc1Cl [Example 122, N-(2-(4-(4-(2-((2-Chloro-4-(trifluoromethyl)phenyl)amino)-2-oxoethyl)-2-(3,6-dihydro-2H-pyran-4-yl)-5-ethyl-7-oxo-4,7-dihydro-[1,2,4]triazolo[1,5-a]pyrimidin-6-yl)piperazin-1-yl)-2-oxoethyl)-3-methylisothiazole-5-carboxamide]
[1]
  pIC50: > 7.00
[2]
  pIC50: > 7.00

## CCc1c(N2CCN(C(=O)c3cnn4cccc4c3O)CC2)c(=O)n2nc(C3=CCOCC3)nc2n1CC(=O)Nc1ccc(C(F)(F)F)cc1F [Example 318, 2-(2-(3,6-Dihydro-2H-pyran-4-yl)-5-ethyl-6-(4-(4-hydroxypyrrolo[1,2-b]pyridazine-3-carbonyl)piperazin-1-yl)-7-oxo-[1,2,4]triazolo[1,5-a]pyrimidin-4(7H)-yl)-N-(2-fluoro-4-(trifluoromethyl)phenyl)acetamide]
[1]
  pIC50: > 7.00
[2]
  pIC50: > 7.00

## CCc1c(N2CCN(C(=O)CNC(=O)c3ccccc3F)CC2)c(=O)n2nc(C3=CCOCC3)nc2n1CC(=O)Nc1cc(Br)cs1 [Example 161, N-(2-(4-(4-(2-((4-Bromothiophen-2-yl)amino)-2-oxoethyl)-2-(3,6-dihydro-2H-pyran-4-yl)-5-ethyl-7-oxo-4,7-dihydro-[1,2,4]triazolo[1,5-a]pyrimidin-6-yl)piperazin-1-yl)-2-oxoethyl)-2-fluorobenzamide]
[1]
  pIC50: > 7.00
[2]
  pIC50: > 7.00
